From publication PMC11992618, “Development of cyclopeptide inhibitors specifically disrupting FXR–coactivator interaction in the intestine as a novel therapeutic strategy for MASH” (Life Metabolism, 2025)

Key:
MCD diet-induced MASH = MCD diet-induced MASH mice, long-term model; format: in vivo, mouse; conditions: oral, 4 weeks
Protocol: For the long-term MASH model, 8- to 10-week-old male C57BL/6 J mice were fed with an MCS diet or MCD diet for 2 weeks, before the MCD models were administered with vehicle or GUDCA (50 mg/kg), OCA (30 mg/kg), and DC646 (10 mg/kg) for 4 weeks. The serum, liver, and intestine were collected 2 h after the final dosing. Male Fxr^△IE mice (8–10 weeks old) were fed with a GAN diet for 20 weeks and administered with vehicle or DC646 (10 mg/kg) from the 12th week for 8 weeks. The serum, liver, and intestine were collected 2 h after the final dosing.
The intestine and liver were frozen in liquid nitrogen and stored at −80°C. RNA was extracted, and complementary DNA was synthesized from 1 μg total RNA. RT-qPCR was performed on a Bio-Rad CFX384 Touch detection system (Bio-Rad). The primer sequences for RT-qPCR are shown in Supplementary Table S5. RNA levels were analyzed by 2-^ΔΔCt, normalized to 18S ribosomal RNA and expressed as fold change relative to the control group.
Hepatic TG and TC, and plasma ALT and AST levels were measured using commercial kits from Nanjing Jiancheng Bioengineering Institute according to the manufacturer’s instructions. To measure hepatic TG contents, liver tissues (~10 mg) were homogenized in 100 μL 1% TritonX-100 and centrifuged at 3000 rpm for 10 min. Supernatants were collected, and 2 μL samples were incubated with 200 μL reaction buffer at 37°C for 10 min. Hepatic TG or TC levels were read at 510 or 500 nm using a microplate reader (Versamax, Molecular Devices) and normalized using the protein concentration. To measure plasma ALT and AST levels, reaction buffer 1 and reaction buffer 2 were mixed at a ratio of 1:1, before adding 2 μL plasma sample and 200 μL mixed reaction buffer in a 96-well plate. The data were acquired using the kinetic mode with an interval of 30 s and 31 total reads at 340 nm using a microplate reader (Versamax, Molecular Devices).
Tissue specimens were fixed in 10% formalin for 12–24 h before being dehydrated and paraffin-embedded. The sections were stained with H&E. The NAS was calculated as a summary score including individual components of steatosis (0–3), lobular inflammation (0–3), and hepatocyte ballooning (0–2) for each liver section by a blinded liver pathologist, and the results were reviewed by a blinded hepatologist according to a previous protocol. To visualize liver fibrosis, paraffin-embedded tissue samples were stained with Sirius Red to characterize the collagen deposition. To visualize lipid accumulation and inflammation in the liver, frozen liver sections were stained with Oil Red O and F4/80, and images were acquired using a Leica DM6B laser microdissection system. At least three discontinuous liver sections were evaluated for each mouse.

[1] = molecular target: T1, human FXR alpha (hFXRα)-LBD / SRC2-3 peptide (Homo sapiens, UniProt Q96RI1); assay: AlphaScreen assay, recruitment of coactivator peptide SRC2-3 to His-hFXRα-LBD; format: biochemical
T1 construct: 100 nmol/L 6*His-hFXRα-LBD and 100 nmol/L biotinylated co-factor peptide
T1 sequence (Q96RI1 262-486 limits assumed): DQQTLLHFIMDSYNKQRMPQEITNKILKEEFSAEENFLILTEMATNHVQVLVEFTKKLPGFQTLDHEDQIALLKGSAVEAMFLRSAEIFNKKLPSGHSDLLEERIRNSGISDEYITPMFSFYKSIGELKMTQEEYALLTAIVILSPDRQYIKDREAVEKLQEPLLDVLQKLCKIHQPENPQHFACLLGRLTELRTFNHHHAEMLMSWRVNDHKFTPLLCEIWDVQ
Protocol: An AlphaScreen technology-based assay was performed according to the manufacturer’s instructions with a minor revision. Briefly, the experiment was conducted with compounds at the indicated concentrations, 100 nmol/L 6*His-hFXRα-LBD and 100 nmol/L biotinylated co-factor peptide in the buffer containing 50 mmol/L MOPS, 50 μmol/L CHAPS, 50 mmol/L NaF, and 0.1 mg/mL BSA, pH 7.4. The mixture was incubated with 50 μg/mL nickel acceptor beads and 50 μg/mL streptavidin donor beads in a 384-well plate under green light in the dark at room temperature, before conducting fluorescence measurement with excitation at 680 nm and emission at 550 nm on an Envision microplate analyzer (PE 2102-8340, PerkinElmer Life Sciences).

Subacute toxicity test = format: in vivo, mouse
Protocol: For the subacute toxicity test of DC646, oral injection of vehicle, 20 mg/kg, 100 mg/kg, or 200 mg/kg DC646 to C57BL/6 male mice was carried out for 7 days. During the week, the body weight and food/water intake were monitored every day. The serum, liver, kidneys, brain, heart, lungs, spleen, testicle, and epididymis were weighed and collected 2 h after the final dosing.
Supplementary Figure S10 Subacute toxicity test of DC646 at 20 mg/kg, 100 mg/kg, or 200 mg/kg. (a) Strategy of animal experiment. (b) Body weight. (c) Food intake. (d) Water intake. (e) Representative pictures of organ morphologies. (f) 1/3 Intestine length and colon length. (g) Organ weight. (h and i) Serum ALT (h) and AST(i) levels. (j) H&E staining of heart, liver, spleen, lung, and kidney. n = 5 in each group. Data are presented as the mean ± SEM and analyzed by one-way ANOVA with Dunnett’s post hoc test.

[2] = DC646 10 mg/kg, GUDCA 50 mg/kg, OCA 30 mg/kg
[3] = C57BL/6 male mice, oral 20, 100, 200 mg/kg, 7 days

Structure (SMILES): CC(C)C[C@@H]1NC(=O)[C@@H]2CN(CCO2)c2cccc3c2c(cn3[Si](C(C)C)(C(C)C)C(C)C)C[C@H](NS(=O)(=O)C(F)(F)F)C(=O)OCCCCNC(=O)[C@H](CC(C)C)NC(=O)[C@@H]2CN(CCO2)c2cccc3c2c(cn3[Si](C(C)C)(C(C)C)C(C)C)C[C@H](NS(=O)(=O)C(F)(F)F)C(=O)OCCCCNC1=O [DC646, N,N'-((1^2R,1^4S,16^2R,16^4S,4R,13R,19R,28R)-13,28-diisobutyl-5,12,15,20,27,30-hexaoxo-2^1,17^1-bis(triisopropylsilyl)-2^1H,17^1H-6,21-dioxa-11,14,26,29-tetraaza-1(4,2),16(2,4)-dimorpholina-2,17(4,3)-diindolacyclotriacontaphane-4,19-diyl)bis(1,1,1-trifluoromethanesulfonamide)]
- F4/80 staining, macrophage infiltration in the liver (MCD diet-induced MASH; DC646 10 mg/kg): good efficacy in reducing macrophage infiltration
- Hepatic FXR signaling in MASH mice (MCD diet-induced MASH; DC646 10 mg/kg): without affecting
- Hepatic triglyceride (TG) levels (MCD diet-induced MASH; DC646 10 mg/kg): markedly reduced
- Intestinal FXR signaling in MASH mice (MCD diet-induced MASH; DC646 10 mg/kg): selectively inhibited
- NAFLD activity scoring (NAS) (MCD diet-induced MASH; DC646 10 mg/kg): alleviating MASH pathologies
- Hepatic mRNA levels of inflammation-related genes (MCD diet-induced MASH; DC646 10 mg/kg, GUDCA 50 mg/kg): notable reduction
- Hepatic mRNA levels of lipid metabolism-related genes / hepatic lipid accumulation (MCD diet-induced MASH; [2]): reduce the mRNA levels
- Serum alanine aminotransferase (ALT) level (MCD diet-induced MASH; [2]): significantly lowered
- H&E and Oil Red O staining, lipid droplets (MCD diet-induced MASH; versus vehicle-, GUDCA- and OCA-treated groups): fewer lipid droplets
- Agonistic activity (SRC2-3 recruitment, compound alone) ([1]; DC646 alone, Fig. 2e): no agonistic activity
- Disruption of hFXRα-LBD-SRC2-3 interaction induced by Ivermectin ([1]; DC646 at 11 μmol/L, Ivermectin 5 μmol/L): competitively disrupted
- IC50 ([1]; IC50, DC646 combined with CDCA, adding order: DC646 combined with CDCA, Fig. 4b): 12.2 µM
- IC50 ([1]; IC50 in recruiting the SRC2-3 peptide in the presence of CDCA, in the presence of CDCA (50 μmol/L), Fig. 2f): 8.86 µM
- Effect on CDCA agonism when adding DC646 before CDCA ([1]; adding order: CDCA after DC646): completely blunted the agonism of CDCA
- Antagonism when adding DC646 after CDCA ([1]; adding order: DC646 after CDCA): no antagonism
- Tolerated dose over minimum effective dose (Subacute toxicity test; 200 mg/kg versus minimum effective dose): more than 20 folds
- Food/water intake (Subacute toxicity test; C57BL/6 male mice, oral 200 mg/kg, 7 days, normal body weight): mildly decreased
- Liver injury indicated by serum ALT and AST (Subacute toxicity test; [3]): did not cause liver injury
- Organ morphology, small intestine and colon length, organ weight (Subacute toxicity test; [3]): no difference
- Body weight and food/water intake (Subacute toxicity test; C57BL/6 male mice, oral 20 and 100 mg/kg, 7 days): did not affect
- MTD at 168 h (Subacute toxicity test; mouse, in vivo, C57BL/6 male mice, oral, 7 days, highest dosage tested, read-out: Highest dosage with good tolerance): 200 mg/kg
